Measurements as given in patent US8309790B2, “Animal models for demyelination disorders” (University of Chicago, priority 2005, dated 2012).
Where two headings read alike, the source gives them in different places.

Legend:
PP1-GADD34 phosphatase = conditions: results in sustained eIF2α phosphorylation, cited from earlier work
[1] = tested on: Hippocampal organotypic cultures; test: Hippocampal organotypic cultures (HOC), in vitro model of myelination, MBP Western blot; format: cell-based; conditions: for reduction of MBP expression elicited by IFN-γ exposure: SAL at various concentrations combined with 100 U/ml IFN-γ for 7 days
Protocol: Our hypothesis is that the integrated stress response has the potential to protect oligodendrocytes from the harmful effects of the inflammatory response in patients with multiple sclerosis (MS). […] To test whether agents that prolong eIF2α phosphorylation might provide protection to oligodendrocytes against detrimental inflammatory factors, the effect of Salubrinol (Sal) in the presence of the immune cytokine IFN-γ was tested in an in vitro model of myelination.
HOCs, were prepared and maintained as described previously (Kunkler and Kraig (1997) J Cereb Blood Flow Metab. 17:26-43), and were maintained in vitro for 7 days before use. SAL at various concentrations was combined with 100 U/ml IFN-γ and added to the HOC cultures for 7 days. […] After 7 days of 100 U/ml IFN-γ exposure, the levels of MBP decreased approximately 80% in the HOCs (FIG. 29).

[2] = tested on: transgenic littermates overexpressing IFN-γ and/or SOCS1; test: IFN-γ-overexpressing mice crossed to PLP/SOCS1 mice, clinical and histological evaluation at postnatal day 21; format: in vivo; conditions: for Incidence of tremor: ten mice per group; for oligodendrocyte density: corpus callosum, postnatal day 21
From the text: The transgenic mice MBP/IFN-γ and GFAP/tTA×TRE/IFN-γ (lines 184/110 and 184/67) that overexpress IFN-γ in the CNS have been described elsewhere (Corbin et al., 1996; Gao et al., 2000; Lin et al., 2004, 2005). Briefly, MBP/IFN-γ mice are transgenic animals in which IFN-γ expression is driven by the myelin basic protein (MBP) transcriptional control region (Gao et al., 2000). GFAP/tTA×TRE/IFN-γ are double-transgenic mice obtained by mating single-transgenic GFAP/tTA to single-transgenic TRE/IFN-γ (lines 110 and 67) mice. The two TRE/IFN-γ mouse lines, line 110 and line 67, used in the experiments produce different amounts of IFN-γ when crossed to GFA/tTA mice (184/110 and 184/67) (Lin e al., 2004, 2005). GFAP/tTA×TRE/IFN-γ is a tetracycline-off-inducible system in which the glial fibrilary acidic protein (GFAP) transcriptional control region drives the expression of tTA, which in turn, binds to the TRE (tet responsive element) and initiates the expression of IFN-γ. Administration of doxycycline suppresses tTA DNA binding and IFN-γ expression, and doxycycline removal allows for temporally-controlled induction of IFN-γ expression (Gao et al., 1999).
IFN-γ-overexpressing mice were crossed to the PLP/SOCS1 mice in double-transgenic, (MBP/IFN-γ×PLP/SOCS1) and triple-transgenic (GFAP/tTA×TRE/IFN-γ×PLP/SOCS1) mating systems. MBP/IFN-γ×PLP/SOCS1 (172×PLP/SOCS1) mating was performed according to a standard mating protocol. The GFAP/tTA×TRE/IFN-γ×PLP/SOCS1 matings were performed in a 2-step mating process: GFAP/tTA mice were initially crossed to PLP/SOCS1 mice, and double-positive (184×PLP/SOCS1) offspring were then crossed to the TRE/IFN-γ lines 110 and 67, separately. This second mating step was performed according to the previously described “tet-off” protocol. Doxycycline 0.05 mg/ml (Sigma-Aldich) was added to the water of impregnated female mice until embryonic day 14, after which the animals were switched back to normal water, thereby allowing initiation of IFN-γ transcription, which peaks during the postnatal period (Lin et al., 2005).
The litters of the mating systems (F1 generation) were examined daily and sacrificed at postnatal day 21. Clinical evaluation included behavioral observation and challenged ladder walking to elicit tremor. Histological examination included quantitation of the number and density of oligodendrocytes and examination of the myelination patterns. Brain tissue was simultaneously obtained from each animal at the time of sacrifice to verify and measure the expression of IFN-γ and Flag-SOCS1 (see below). The clinical and histological findings were subsequently stratified according to genotype. All animal procedures were conducted in compliance with the National Institutes of Health Guide for Care and Use of Laboratory Animals and were approved by the Institutional Animal Care and Use Committee at The University of Chicago.
Oligodendrocyte cell density was assessed digitally using Axiovision software, at postnatal day 21, as previously described (Lin et al., 2005). The brains were sectioned sagittally through the corpus callosum dividing the brain in two symmetrical halves. Ten frozen sections from each half were prepared at 7 μm thickness, and numbered in the sequence of their preparation. The brains of three animals per study group were prepared in this fashion. Following the CC1 immunostaining the corresponding area of corpus callosum of each section was digitally selected and the corresponding total area obtained. CC1 cell counting was performed manually within the selected areas of each section, and the number of CC1 positive cells per square area (mm^2) calculated. The results were presented as mean±SD of CC1 (+) cells/mm^2 with n=3 animals per study group. […]

Molecule	PP1-GADD34 phosphatase activity (PP1-GADD34 phosphatase)	PP1-GADD34 phosphatase activity (PP1-GADD34 phosphatase; listed as Salubrinol)	reduction of MBP expression elicited by IFN-γ exposure [1]	reduction of MBP expression elicited by IFN-γ exposure ([1]; listed as Sal)	MBP expression ([1]; SAL treatment alone)	Incidence of tremor ([2]; 172 × PLP/SOCS1 mating system) [%]	Incidence of tremor ([2]; 184/67 × PLP/SOCS1 mating system) [%]	oligodendrocyte density ([2]; 184/67 × PLP/SOCS1 system)	Incidence of tremor ([2]; 184/110 × PLP/SOCS1 mating system) [%]	oligodendrocyte density ([2]; 184/110 × PLP/SOCS1 system)
O=C(/C=C/c1ccccc1)NC(NC(=S)Nc1cccc2cccnc12)C(Cl)(Cl)Cl (stereo not shown) [SAL, salubrinal]	specifically inhibits	specifically inhibit	markedly attenuated	attenuating effect	did not affect					
suppressor of cytokine signaling 1 (protein, UniProt O35716 1-212, looked up, Flag tag) Suppressor of cytokine …: MVARNQVAADNAISPAAEPRRRSEPSSSSSSSSPAAPVRPRPCPAVPAPAPGDTHFRTFRSHSDYRRITRTSALLDACGFYWGPLSVHGAHERLRAEPVGTFLVRDSRQRNCFFALSVKMASGPTSIRVHFQAGRFHLDGSRETFDCLFELLEHYVAAPRRMLGAPLRQRRVRPLQELCRQRIVAAVGRENLARIPLNPVLRDYLSSFPFQI						0	0	142±5 CC1 (+) cells/mm^2	0	141±6 CC1 (+) cells/mm^2
